# From ChEMBL document CHEMBL5442219
# Legend:
# Details in all cases: Compound concentration 10 µM
# [1] = biological target: T1, Alpha-1D adrenergic receptor (Homo sapiens) (UniProt P25100)
# T1 sequence (whole entry): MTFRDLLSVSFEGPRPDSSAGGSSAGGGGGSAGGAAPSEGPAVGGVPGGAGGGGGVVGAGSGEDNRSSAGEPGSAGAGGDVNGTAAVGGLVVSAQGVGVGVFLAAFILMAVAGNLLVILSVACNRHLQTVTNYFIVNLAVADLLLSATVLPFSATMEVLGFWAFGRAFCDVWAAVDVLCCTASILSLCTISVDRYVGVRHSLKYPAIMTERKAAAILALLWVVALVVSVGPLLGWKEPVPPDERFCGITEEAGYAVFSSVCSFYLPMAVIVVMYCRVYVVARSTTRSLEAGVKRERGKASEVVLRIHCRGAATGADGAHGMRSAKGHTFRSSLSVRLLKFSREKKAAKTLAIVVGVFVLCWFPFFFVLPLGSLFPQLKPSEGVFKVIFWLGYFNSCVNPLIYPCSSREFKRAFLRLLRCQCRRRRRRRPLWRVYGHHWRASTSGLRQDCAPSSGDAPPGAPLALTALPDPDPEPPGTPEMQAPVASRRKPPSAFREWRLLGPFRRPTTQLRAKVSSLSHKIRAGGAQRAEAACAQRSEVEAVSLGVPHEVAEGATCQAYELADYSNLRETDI
# Description: PDSP Primary Binding target: ADRA1D - Compounds are tested at 10 uM concentration, plate are incubated at room temperature in the dark for 90 minutes. Reaction are stopped by vacuum filtration onto 0.3% polyethyleneimine soaked filter mats using Filtermate harvester. Scintilation cocktail is then melted onto microwave-dried filters on a hot plate and the radio activity is counted in Microbia counter.
# [2] = biological target: T2, Muscarinic acetylcholine receptor M5 (Homo sapiens) (UniProt P08912)
# T2 sequence (whole entry): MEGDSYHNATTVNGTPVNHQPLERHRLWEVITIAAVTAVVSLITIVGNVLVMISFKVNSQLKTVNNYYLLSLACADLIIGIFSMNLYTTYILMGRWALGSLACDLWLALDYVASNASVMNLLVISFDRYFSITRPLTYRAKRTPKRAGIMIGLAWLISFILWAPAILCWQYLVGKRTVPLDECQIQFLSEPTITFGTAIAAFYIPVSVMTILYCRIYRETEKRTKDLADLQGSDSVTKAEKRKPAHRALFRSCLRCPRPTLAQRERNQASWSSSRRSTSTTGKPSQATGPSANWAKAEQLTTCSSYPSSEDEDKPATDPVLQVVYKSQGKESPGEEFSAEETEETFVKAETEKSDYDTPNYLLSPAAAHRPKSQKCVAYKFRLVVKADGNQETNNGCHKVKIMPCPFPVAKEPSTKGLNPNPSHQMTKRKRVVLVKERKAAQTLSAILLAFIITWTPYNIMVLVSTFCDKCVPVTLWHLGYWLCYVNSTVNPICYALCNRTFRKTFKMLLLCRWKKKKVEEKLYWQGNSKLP
# Description: PDSP Primary Binding target: CHRM5 - Compounds are tested at 10 uM concentration, plate are incubated at room temperature in the dark for 90 minutes. Reaction are stopped by vacuum filtration onto 0.3% polyethyleneimine soaked filter mats using Filtermate harvester. Scintilation cocktail is then melted onto microwave-dried filters on a hot plate and the radio activity is counted in Microbia counter.
# [3] = biological target: Sodium-dependent serotonin transporter (Homo sapiens) (UniProt P31645)
# Sequence of Sodium-dependent serotonin transporter (Homo sapiens) (P31645 whole entry, looked up): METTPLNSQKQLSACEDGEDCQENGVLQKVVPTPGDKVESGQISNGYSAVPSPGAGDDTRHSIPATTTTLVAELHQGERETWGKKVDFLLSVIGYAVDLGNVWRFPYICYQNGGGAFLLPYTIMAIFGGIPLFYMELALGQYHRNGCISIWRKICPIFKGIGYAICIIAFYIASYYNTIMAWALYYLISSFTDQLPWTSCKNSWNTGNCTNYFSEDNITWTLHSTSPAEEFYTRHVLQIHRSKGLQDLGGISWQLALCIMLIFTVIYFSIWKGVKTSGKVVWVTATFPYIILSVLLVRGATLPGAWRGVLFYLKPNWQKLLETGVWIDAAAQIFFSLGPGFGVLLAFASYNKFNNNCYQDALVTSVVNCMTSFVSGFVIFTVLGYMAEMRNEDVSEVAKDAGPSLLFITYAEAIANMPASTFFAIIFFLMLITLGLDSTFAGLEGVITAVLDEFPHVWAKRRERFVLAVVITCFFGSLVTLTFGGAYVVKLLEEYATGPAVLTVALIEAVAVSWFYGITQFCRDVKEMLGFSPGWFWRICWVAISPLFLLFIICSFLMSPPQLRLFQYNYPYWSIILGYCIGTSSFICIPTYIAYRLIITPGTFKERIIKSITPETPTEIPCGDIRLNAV
# Description: PDSP Primary Binding target: SLC6A4 - Compounds are tested at 10 uM concentration, plate are incubated at room temperature in the dark for 90 minutes. Reaction are stopped by vacuum filtration onto 0.3% polyethyleneimine soaked filter mats using Filtermate harvester. Scintilation cocktail is then melted onto microwave-dried filters on a hot plate and the radio activity is counted in Microbia counter.
# [4] = biological target: T3, Muscarinic acetylcholine receptor M2 (Homo sapiens) (UniProt P08172)
# T3 sequence (whole entry): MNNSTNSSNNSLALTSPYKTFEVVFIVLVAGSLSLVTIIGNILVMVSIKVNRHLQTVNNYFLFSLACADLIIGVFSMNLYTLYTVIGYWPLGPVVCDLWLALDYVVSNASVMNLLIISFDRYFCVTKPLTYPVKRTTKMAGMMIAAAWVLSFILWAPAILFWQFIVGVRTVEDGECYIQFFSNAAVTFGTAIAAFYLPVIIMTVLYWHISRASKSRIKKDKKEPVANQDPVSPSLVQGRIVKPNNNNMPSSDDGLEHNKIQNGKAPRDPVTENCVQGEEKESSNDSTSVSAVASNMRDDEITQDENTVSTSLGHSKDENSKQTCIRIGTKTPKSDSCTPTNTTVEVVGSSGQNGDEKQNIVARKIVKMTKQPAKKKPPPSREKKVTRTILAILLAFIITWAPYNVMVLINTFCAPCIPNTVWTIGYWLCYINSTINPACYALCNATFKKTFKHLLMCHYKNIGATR
# Description: PDSP Primary Binding target: CHRM2 - Compounds are tested at 10 uM concentration, plate are incubated at room temperature in the dark for 90 minutes. Reaction are stopped by vacuum filtration onto 0.3% polyethyleneimine soaked filter mats using Filtermate harvester. Scintilation cocktail is then melted onto microwave-dried filters on a hot plate and the radio activity is counted in Microbia counter.
# [5] = biological target: T4, Alpha-2A adrenergic receptor (Homo sapiens) (UniProt P08913)
# T4 sequence (whole entry): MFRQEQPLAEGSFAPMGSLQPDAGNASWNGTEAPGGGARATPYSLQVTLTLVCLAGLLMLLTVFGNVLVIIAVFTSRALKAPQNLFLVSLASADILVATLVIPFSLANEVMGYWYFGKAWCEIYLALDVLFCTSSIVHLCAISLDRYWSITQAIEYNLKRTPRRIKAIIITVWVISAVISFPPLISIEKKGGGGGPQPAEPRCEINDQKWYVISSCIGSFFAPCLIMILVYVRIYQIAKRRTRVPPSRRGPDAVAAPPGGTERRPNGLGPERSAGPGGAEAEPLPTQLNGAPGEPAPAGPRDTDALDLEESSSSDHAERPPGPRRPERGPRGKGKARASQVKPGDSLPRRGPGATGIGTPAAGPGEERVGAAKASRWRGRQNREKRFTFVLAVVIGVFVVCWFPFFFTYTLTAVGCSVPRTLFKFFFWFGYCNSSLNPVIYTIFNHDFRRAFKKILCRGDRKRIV
# Description: PDSP Primary Binding target: ADRA2A - Compounds are tested at 10 uM concentration, plate are incubated at room temperature in the dark for 90 minutes. Reaction are stopped by vacuum filtration onto 0.3% polyethyleneimine soaked filter mats using Filtermate harvester. Scintilation cocktail is then melted onto microwave-dried filters on a hot plate and the radio activity is counted in Microbia counter.
Structure (SMILES),inhibition [1] [%],inhibition [2] [%],inhibition [3] [%],inhibition [4] [%],inhibition [5] [%]
COC1CCN(c2cccc(-c3cc(NC(C)=O)nc(-n4nc(C)cc4C)n3)n2)CC1,17.4,-2.53,–,–,–
Cc1csc(NC(=O)c2cc(F)cc(Oc3cncnc3)c2)n1,–,–,21.2,-7.43,–
Cc1nnn(-c2ccc(-c3ccc(C4(C(=O)O)CC4)cc3)cc2)c1NC(=O)O[C@H](C)c1ccccc1,23.9,–,–,–,0.57
COc1ccnc(N2CCC3(CCCN(Cc4c[nH]c5ccccc45)C3=O)CC2)n1,–,–,–,-2.35,–
